Measurements from the NIST ThermoML archive (doi:10.1016/j.tca.2013.09.034).
Numbers after ± are expanded uncertainties.

Assay: mn = molality of the nth substance listed, in mol/kg
Details: 101 kPa, Liquid; for speed of sound: Sing-around technique in a fixed-path interferometer; for mass density: Vibrating tube method

## CCCCn1cc[n+](C)c1C.[Cl-] [1-butyl-2,3-dimethylimidazolium chloride] + O
288.15 K, m1 = 0.0354
  speed of sound: 1471.7 ± 1.4 m/s
  mass density: 999.41 ± 0.29 kg/m3
288.15 K, m1 = 0.0466
  speed of sound: 1480.1 ± 1.4 m/s
  mass density: 999.559 ± 0.29 kg/m3
288.15 K, m1 = 0.0575
  speed of sound: 1484.9 ± 1.4 m/s
  mass density: 999.712 ± 0.3 kg/m3
288.15 K, m1 = 0.0702
  speed of sound: 1489.8 ± 1.4 m/s
  mass density: 999.936 ± 0.3 kg/m3
288.15 K, m1 = 0.0932
  speed of sound: 1498 ± 1.4 m/s
  mass density: 1000.31 ± 0.3 kg/m3
288.15 K, m1 = 0.1164
  speed of sound: 1502.9 ± 1.4 m/s
  mass density: 1000.68 ± 0.3 kg/m3
288.15 K, m1 = 0.1401
  speed of sound: 1505.3 ± 1.4 m/s
  mass density: 1000.99 ± 0.3 kg/m3
288.15 K, m1 = 0.1635
  speed of sound: 1506.4 ± 1.4 m/s
  mass density: 1001.1 ± 0.3 kg/m3
288.15 K, m1 = 0.1862
  speed of sound: 1507.5 ± 1.4 m/s
  mass density: 1001.01 ± 0.3 kg/m3
288.15 K, m1 = 0.2082
  speed of sound: 1508.2 ± 1.4 m/s
  mass density: 1000.78 ± 0.3 kg/m3
288.15 K, m1 = 0.2329
  speed of sound: 1509.1 ± 1.4 m/s
  mass density: 1000.25 ± 0.3 kg/m3
298.15 K, m1 = 0.0354
  speed of sound: 1502.4 ± 1.4 m/s
  mass density: 997.296 ± 0.3 kg/m3
298.15 K, m1 = 0.0466
  speed of sound: 1508.2 ± 1.4 m/s
  mass density: 997.434 ± 0.29 kg/m3
298.15 K, m1 = 0.0575
  speed of sound: 1512.1 ± 1.4 m/s
  mass density: 997.614 ± 0.3 kg/m3
298.15 K, m1 = 0.0702
  speed of sound: 1515.5 ± 1.4 m/s
  mass density: 997.784 ± 0.3 kg/m3
298.15 K, m1 = 0.0932
  speed of sound: 1520.7 ± 1.4 m/s
  mass density: 998.103 ± 0.29 kg/m3
298.15 K, m1 = 0.1164
  speed of sound: 1525.7 ± 1.4 m/s
  mass density: 998.419 ± 0.29 kg/m3
298.15 K, m1 = 0.1401
  speed of sound: 1527.9 ± 1.4 m/s
  mass density: 998.698 ± 0.29 kg/m3
298.15 K, m1 = 0.1635
  speed of sound: 1529.3 ± 1.4 m/s
  mass density: 998.836 ± 0.29 kg/m3
298.15 K, m1 = 0.1862
  speed of sound: 1530.5 ± 1.4 m/s
  mass density: 998.743 ± 0.29 kg/m3
298.15 K, m1 = 0.2082
  speed of sound: 1531.5 ± 1.4 m/s
  mass density: 998.556 ± 0.29 kg/m3
298.15 K, m1 = 0.2329
  speed of sound: 1532.1 ± 1.4 m/s
  mass density: 998.134 ± 0.3 kg/m3
308.15 K, m1 = 0.0354
  speed of sound: 1525.2 ± 1.4 m/s
  mass density: 994.233 ± 0.29 kg/m3
308.15 K, m1 = 0.0466
  speed of sound: 1530.4 ± 1.4 m/s
  mass density: 994.36 ± 0.29 kg/m3
308.15 K, m1 = 0.0575
  speed of sound: 1533 ± 1.4 m/s
  mass density: 994.516 ± 0.29 kg/m3
308.15 K, m1 = 0.0702
  speed of sound: 1535.5 ± 1.4 m/s
  mass density: 994.679 ± 0.29 kg/m3
308.15 K, m1 = 0.0932
  speed of sound: 1539.2 ± 1.4 m/s
  mass density: 994.956 ± 0.29 kg/m3
308.15 K, m1 = 0.1164
  speed of sound: 1543.5 ± 1.4 m/s
  mass density: 995.243 ± 0.29 kg/m3
308.15 K, m1 = 0.1401
  speed of sound: 1546.4 ± 1.4 m/s
  mass density: 995.547 ± 0.29 kg/m3
308.15 K, m1 = 0.1635
  speed of sound: 1547.4 ± 1.4 m/s
  mass density: 995.675 ± 0.29 kg/m3
308.15 K, m1 = 0.1862
  speed of sound: 1549.1 ± 1.4 m/s
  mass density: 995.587 ± 0.29 kg/m3
308.15 K, m1 = 0.2082
  speed of sound: 1550 ± 1.4 m/s
  mass density: 995.17 ± 0.3 kg/m3
308.15 K, m1 = 0.2329
  speed of sound: 1550.6 ± 1.4 m/s
  mass density: 994.487 ± 0.3 kg/m3
